For 19 compounds, EC50 results are on record in US20080194637A1, “Small organic molecule regulators of cell proliferation” (Curis, Inc., priority 2006, published 2008).

What all share (assay type): cell-based
The subject of assay [1] is sonic hedgehog pathway, TM3 mouse Leydig cells. As to the kind of experiment: Hedgehog pathway Gli-luciferase reporter assay in TM3 cells. The text has this:
(§1) Mouse (TM3: mouse Leydig cells; S12: mouse embryonic mesenchymal cells) and human (Daoy: human medulloblastoma cell; HepM: human embryonic palatal mesenchymal cell) cell lines are used to screen small molecules for their ability to modulate the activity of the sonic hedgehog pathway (Table 1, Table 2, and Table 3). Stable hedgehog pathway reporter cell lines are established by specific antibiotic selection following transfection of a reporter plasmid containing a luciferase gene located directly downstream from the gli promoter. Consequently, any observable changes in cellular luciferase activity may be attributed to changes in sonic hedgehog pathway activity in mouse and human cells, respectively, since gli is the major by-product of this pathway. To calculate activity, we generate an eleven point dose curve for each compound using 1:3 dilutions in 96 well assay plates. Each plate tested also contains low and high control to establish maximal pathway activation so to establish/compare a percentage activation of each tested compound (AMAX) on respective plates. Also we calculate EC50 values, or a concentration where the pathway will be exactly 50% activated, for each tested compound to determine potency. In these cell lines, compounds that register >20% AMAX values are considered active.
(§2) Stable hedgehog pathway reporter cell lines are established following specific antibiotic selection following transfection of a reporter plasmid In short, typically cells are plated in MicroTiter-plates at 10,000-20,000 cells per well, in growth media (containing 10%-20% FBS). After 48-72 hrs (HGL and DGL respectively) the media in the assay plates is switched to low-serum containing media (0.5% FBS). At that time compounds are added (at 1-5 μM) to the assay plates, in the presence or absence of hedgehog protein (octyl-modified version; 1-5 ng/ml). After another 24 hrs of incubation, the media from the assay plates is discarded and replaced with luciferase assay-mix. Subsequently, plates are incubated at RT for ˜15-30 mins and then read in a luminometer. [note: addition of the Hedgehog protein, although not critical, will sensitize the assay allowing the identification of weak actives].
(A reporter such as luciferase makes a cellular process visible.)

The test system of assay [2] is sonic hedgehog pathway, HepM human embryonic palatal mesenchymal cells. As to the kind of experiment: Human hedgehog reporter assay HEPM-GliLuc (HGL). As to conditions: gli-luciferase reporter.
Excerpt: as §1, §2

Assay [3] concerns sonic hedgehog pathway, Daoy human medulloblastoma cells. Kind of assay: Human hedgehog reporter assay Daoy-GliLuc (DGL). The settings on record: gli-luciferase reporter, read-out: Daoy Avg. EC50.
Excerpt: as §1, §2

The mark [4] stands for this setting: HepM human embryonic palatal mesenchymal cells, Table 1.
Where [5] appears, read: Daoy human medulloblastoma cells, Table 1.

Structures can show the parent of a compound that is named as a salt. Where two headings read alike, the source gives them in different places.

Turning to `CN[C@H]1CC[C@@H](N(Cc2cc(-c3cccc(C#N)c3)ccc2OC)C(=O)c2sc3c(F)ccc(F)c3c2Cl)CC1` [Compound 337, 3-Chloro-4,7-difluoro-benzo[b]thiophene-2-carboxylic acid (3′-cyano-4-methoxy-biphenyl-3-ylmethyl)-(4-methylamino-cyclohexyl)-amide hydrochloride], the EC50 in assay [1] (Table 1) and in assay [2] (setting [4]) was less than 50 nM in each case.
Take `CN[C@H]1CC[C@H](N(Cc2cc(-c3ccc(N)nc3C)ccc2OC)C(=O)c2sc3ccccc3c2Cl)CC1` [Compound 398, 3-Chloro-benzo[b]thiophene-2-carboxylic acid [5-(6-amino-2-methyl-pyridin-3-yl)-2-methoxy-benzyl]-(4-methylamino-cyclohexyl)-amide dihydrochloride]: the EC50 in assay [1] (Table 3) lay within 1000 to 2500 nM; in assay [2] (HepM human cells, Table 3) it was 1000 to 2500 nM; in assay [3] (Daoy human cells, Table 3), 250 to 1000 nM.
Consider `CN[C@H]1CC[C@H](N(Cc2cc(-c3ccc(C(O)C(F)(F)F)cc3)ccc2F)C(=O)c2sc3ccccc3c2Cl)CC1` (stereo partly drawn) [Compound 433, 3-Chloro-benzo[b]thiophene-2-carboxylic acid [4-fluoro-4′-(2,2,2-trifluoro-1-hydroxy-ethyl)-biphenyl-3-ylmethyl]-(4-methylamino-cyclohexyl)-amide hydrochloride], for which the EC50 in assay [1] (Table 3) was less than 50 nM; in assay [3] (Daoy human cells, Table 3) it was less than 50 nM.
Regarding `CCOc1ccc(-c2ccc(OC)cc2)cc1CN(C(=O)c1sc2ccccc2c1Cl)[C@H]1CC[C@@H](NC)CC1` [Compound 312, 3-Chloro-benzo[b]thiophene-2-carboxylic acid (4-ethoxy-4′-methoxy-biphenyl-3-ylmethyl)-(4-methylamino-cyclohexyl)-amide hydrochloride], the EC50 in assay [3] (setting [5]) fell in the range of 50 to 250 nM.
As to `CN[C@H]1CC[C@@H](N(Cc2cc(-c3cccc(C(C)=O)c3)ccc2OC)C(=O)c2sc3c(F)ccc(F)c3c2Cl)CC1` [Compound 364, 3-Chloro-4,7-difluoro-benzo[b]thiophene-2-carboxylic acid (3′-acetyl-4-methoxy-biphenyl-3-ylmethyl)-(4-methylamino-cyclohexyl)-amide hydrochloride], the EC50 in assay [1] (Table 1) and in assay [2] (setting [4]) was less than 50 nM each time.
For `CN[C@H]1CC[C@@H](N(Cc2cc(-c3cnc(N(C)C)nc3)ccc2OC)C(=O)c2sc3ccccc3c2Cl)CC1` [Compound 321, 3-Chloro-benzo[b]thiophene-2-carboxylic acid [5-(2-dimethylamino-pyrimidin-5-yl)-2-methoxy-benzyl]-(4-methylamino-cyclohexyl)-amide dihydrochloride], the figures for the EC50 in assay [1] (Table 1) and in assay [3] (setting [5]) were 1000 to 2500 nM and 50 to 250 nM, respectively.
`CN[C@H]1CC[C@@H](N(Cc2cc(-c3ccc(C#N)cc3)ccc2OC)C(=O)c2sc3cccc(F)c3c2Cl)CC1` [Compound 366, 3-Chloro-4-fluoro-benzo[b]thiophene-2-carboxylic acid (4′-cyano-4-methoxy-biphenyl-3-ylmethyl)-(4-methylamino-cyclohexyl)-amide hydrochloride]: the EC50 in assay [1] (Table 1) and in assay [3] (setting [5]) was less than 50 nM each time.
Consider `CCOc1ccc(-c2cncnc2)cc1CN(C(=O)c1sc2ccccc2c1Cl)[C@H]1CC[C@@H](NC)CC1` [Compound 326, 3-Chloro-benzo[b]thiophene-2-carboxylic acid (2-ethoxy-5-pyrimidin-5-yl-benzyl)-(4-methylamino-cyclohexyl)-amide dihydrochloride], for which the values for the EC50 in assay [1] (Table 1), in assay [2] (setting [4]) and in assay [3] (setting [5]) were 50 to 250 nM, 50 to 250 nM and less than 50 nM, respectively.
Take `CN[C@H]1CC[C@@H](N(Cc2cc(-c3ccc(OC(F)(F)F)cc3)ccc2OC)C(=O)c2sc3ccccc3c2Cl)CC1` [Compound 307, 3-Chloro-benzo[b]thiophene-2-carboxylic acid (4-methoxy-4′-trifluoromethoxy-biphenyl-3-ylmethyl)-(4-methylamino-cyclohexyl)-amide hydrochloride]: the EC50 in assay [1] (Table 1) and in assay [3] (setting [5]) was less than 50 nM in each case.
Turning to `CCOc1ccc(-c2ccc(C(F)(F)F)cc2)cc1CN(C(=O)c1sc2ccccc2c1Cl)[C@H]1CC[C@@H](NC)CC1` [Compound 309, 3-Chloro-benzo[b]thiophene-2-carboxylic acid (4-ethoxy-4′-trifluoromethyl-biphenyl-3-ylmethyl)-(4-methylamino-cyclohexyl)-amide hydrochloride], the values for the EC50 in assay [1] (Table 1) and in assay [3] (setting [5]) were 50 to 250 nM and less than 50 nM, respectively.
As to `CN[C@H]1CC[C@@H](N(Cc2cc(-c3cccc(C#N)c3)ccc2OC)C(=O)c2sc3cccc(F)c3c2Cl)CC1` [Compound 365, 3-Chloro-4-fluoro-benzo[b]thiophene-2-carboxylic acid (3′-cyano-4-methoxy-biphenyl-3-ylmethyl)-(4-methylamino-cyclohexyl)-amide hydrochloride], the EC50 in assay [1] (Table 1) and in assay [3] (setting [5]) was less than 50 nM each time.
In the case of `CN[C@H]1CC[C@@H](N(Cc2cc(-c3ccc(CCl)cc3)ccc2OC)C(=O)c2sc3ccccc3c2Cl)CC1` [Compound 340, 3-Chloro-benzo[b]thiophene-2-carboxylic acid (4′-chloromethyl-4-methoxy-biphenyl-3-ylmethyl)-(4-methylamino-cyclohexyl)-amide hydrochloride], the EC50 in assay [1] (Table 1), in assay [2] (setting [4]) and in assay [3] (setting [5]) was less than 50 nM in each case.
For the compound `CN[C@H]1CC[C@@H](N(Cc2cc(-c3cccc(C#N)c3)ccc2OC)C(=O)c2sc3ccccc3c2Cl)CC1` [Compound 304, 3-Chloro-benzo[b]thiophene-2-carboxylic acid (3′-cyano-4-methoxy-biphenyl-3-ylmethyl)-(4-methylamino-cyclohexyl)-amide hydrochloride], the EC50 in assay [1] (Table 1), in assay [2] (setting [4]) and in assay [3] (setting [5]) was less than 50 nM throughout.
Take `CN[C@H]1CC[C@@H](N(Cc2cc(-c3ccnc(C(=O)O)c3)ccc2OC)C(=O)c2sc3c(F)ccc(F)c3c2Cl)CC1` [Compound R6, 4-(3-{[(3-Chloro-4,7-difluoro-benzo[b]thiophene-2-carbonyl)-(4-methylamino-cyclohexyl)-amino]-methyl}-4-methoxy-phenyl)-pyridine-2-carboxylic acid bis(trifluoroacetate)]: the EC50 in assay [1] (Table 1) and in assay [2] (setting [4]) was 50 to 250 nM throughout.
As for `CN[C@H]1CC[C@@H](N(Cc2cc(-c3ccc(C)nc3)ccc2OC)C(=O)c2sc3ccccc3c2Cl)CC1` [Compound 320, 3-Chloro-benzo[b]thiophene-2-carboxylic acid [2-methoxy-5-(6-methyl-pyridin-3-yl)-benzyl]-(4-methylamino-cyclohexyl)-amide dihydrochloride], the half-maximal effective concentration (EC50) in assay [1] (Table 1) and in assay [2] (setting [4]) was less than 50 nM in each case.
Consider `CNC(=O)c1cc(-c2ccc(OC)c(CN(C(=O)c3sc4c(F)ccc(F)c4c3Cl)[C@H]3CC[C@H](NC)CC3)c2)ccn1` [356 (R21), 4-(3-{([(3-Chloro-4,7-difluoro-benzo[b]thiophene-2-carbonyl)-(4-methylamino-cyclohexyl)-amino]-methyl}-4-methoxy-phenyl)-pyridine-2-carboxylic acid methylamidedihydrochloride], for which the EC50 in assay [1] (Table 1), in assay [2] (setting [4]) and in assay [3] (setting [5]) was less than 50 nM throughout.
In the case of `CN[C@H]1CC[C@@H](N(Cc2cc(-c3ccc(S(C)(=O)=O)cc3)ccc2OC)C(=O)c2sc3ccccc3c2Cl)CC1` [Compound R7, 3-Chloro-benzo[b]thiophene-2-carboxylic acid (4′-methanesulfonyl-4-methoxy-biphenyl-3-ylmethyl)-(4-methylamino-cyclohexyl)-amide hydrochloride], the EC50 in assay [1] (Table 1) and in assay [2] (setting [4]) was less than 50 nM each time.
For the compound `CN[C@H]1CC[C@@H](N(Cc2cc(-c3ccc(C#N)cc3)ccc2OC)C(=O)c2sc3c(F)ccc(F)c3c2Cl)CC1` [Compound 351, 3-Chloro-4,7-difluoro-benzo[b]thiophene-2-carboxylic acid (4′-cyano-4-methoxy-biphenyl-3-ylmethyl)-(4-methylamino-cyclohexyl)-amide hydrochloride], the EC50 in assay [1] (Table 1) and in assay [2] (setting [4]) was less than 50 nM throughout.
For the compound `CCOc1ccc(-c2ccccc2)cc1CN(C(=O)c1sc2ccccc2c1Cl)[C@H]1CC[C@@H](NC)CC1` [Compound 313, 3-Chloro-benzo[b]thiophene-2-carboxylic acid (4-ethoxy-biphenyl-3-ylmethyl)-(4-methylamino-cyclohexyl)-amide hydrochloride], the EC50 in assay [1] (Table 1) was 50 to 250 nM; in assay [3] (setting [5]), less than 50 nM.

In general, EC50 refers to the concentration needed to bring the measured effect to its halfway point.
